{"source": "patent US8367653B2", "about": "“Azetidinyl diamides as monoacylglycerol lipase inhibitors” (Janssen Pharmaceutica NV, priority 2009, dated 2013)", "key": {"[1]": {"target": "T1, MGL (rat brain homogenate) (Rattus norvegicus, UniProt Q8R431)", "T1 construct": "pre-incubated with rat brain homogenate (50 mg); from tissue; host or cells: rat brain homogenate", "T1 sequence (Q8R431 1-303)": "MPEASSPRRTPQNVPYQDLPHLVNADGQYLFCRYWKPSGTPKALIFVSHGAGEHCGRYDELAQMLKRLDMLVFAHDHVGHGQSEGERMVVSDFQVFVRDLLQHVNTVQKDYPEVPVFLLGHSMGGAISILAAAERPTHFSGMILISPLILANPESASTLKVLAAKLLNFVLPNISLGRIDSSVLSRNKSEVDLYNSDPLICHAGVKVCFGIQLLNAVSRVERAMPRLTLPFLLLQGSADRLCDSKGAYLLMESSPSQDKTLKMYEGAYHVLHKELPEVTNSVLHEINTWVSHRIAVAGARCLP", "test": "2-AG Accumulation Assay in rat brain homogenate", "assay_type": "biochemical", "conditions": "0.25 h, compound 1 μM, percent of vehicle 2-AG accumulation, read-out: Rat Brain 2AG % VehCntrl (%) @1 μM"}, "[2]": {"test_system": "CFA-induced paw radiant heat hypersensitivity", "test": "CFA-Induced Paw Radiant Heat Hypersensitivity", "assay_type": "in vivo", "conditions": "CFA thermal hypersensitivity, rat, 30 mg/kg p.o., HPβCD; group mean values; last time point 180 or 300 min", "protocol": "Each rat was placed in a test chamber on a warm glass surface and allowed to acclimate for approximately 10 min. A radiant thermal stimulus (beam of light) was then focused through the glass onto the plantar surface of each hind paw in turn. The thermal stimulus was automatically shut off by a photoelectric relay when the paw was moved or when the cut-off time was reached (20 sec for radiant heat at ˜5 amps). An initial (baseline) response latency to the thermal stimulus was recorded for each animal prior to the injection of complete Freund's adjuvant (CFA). […] Immediately following the post-CFA latency assessment, the indicated test compound or vehicle was administered orally.\nThe percent reversal (% R) of hypersensitivity was calculated in one of two different ways: 1) using group mean values or 2) using individual animal values. More specifically:\nMethod 2. For some compounds, the % R of hypersensitivity was calculated separately for each animal according to the following formula: % reversal=[(individual treatment response−individual CFA response)/(individual baseline response−individual CFA response)]×100. Results are given as a mean of the maximum % reversal values calculated for each individual animal."}, "hot plate": {"test_system": "hot plate", "conditions": "cited from earlier work"}, "tail flick": {"test_system": "tail flick", "conditions": "intravenous delivery (Mechoulam et al. 1995); cited from earlier work"}, "[3]": {"test_system": "murine model of acute inflammation", "conditions": "Comelli et al. 2007; cited from earlier work"}}, "note": "Where two headings read alike, the source gives them in different places.", "data": [{"smiles": "Cc1ccc(-n2ccc3cc(C(=O)N4CC(N5CCN(C(=O)c6nccs6)CC5)C4)ccc32)nc1", "note": "[Cpd 1073, 1-(5-Methylpyridin-2-yl)-5-({3-[4-(1,3-thiazol-2-ylcarbonyl)piperazin-1-yl]azetidin-1-yl}carbonyl)-1H-indole]", "values": [{"measurement": "activity at 1 µM", "setting": "[1]", "value": 749, "unit": "%"}]}, {"smiles": "C/C(=C\\c1ccc(Cl)cc1)c1c(C)c(C(=O)N2CC(N3CCN(C(=O)c4nccs4)CC3)C2)nn1-c1ccc(Cl)cc1Cl", "note": "[Cpd 1010]", "values": [{"measurement": "Method 1: peak % reversal", "setting": "[2]", "value": 23.4, "unit": "%"}]}, {"smiles": "CCCCC/C=C\\C/C=C\\C/C=C\\C/C=C\\CCCC(=O)OC(CO)CO", "note": "[2-AG, 2-arachidinoylglycerol]", "values": [{"measurement": "analgesia in the hot plate assay", "setting": "hot plate; combined with 2-linoleoyl glycerol and 2-palmitoyl glycerol (Ben-Shabat et al. 1998)", "value": "significant analgesia"}, {"measurement": "analgesia in the hot plate assay", "setting": "hot plate; given alone (Ben-Shabat et al. 1998)", "value": "not analgesic"}, {"measurement": "analgesia in the hot plate assay", "setting": "hot plate; intravenous delivery (Lichtman et al. 2002)", "value": "produces analgesia"}, {"measurement": "analgesia in the tail flick assay", "setting": "tail flick", "value": "produces analgesia"}]}, {"smiles": "O=C(Nc1cccc(-c2ccccc2)c1)OC1CCCCC1", "note": "[URB602]", "values": [{"measurement": "antinociceptive effect", "setting": "[3]", "value": "antinociceptive effect"}]}, {"smiles": "O=C(c1ccc(-c2cccc(C(F)(F)F)c2)c(Cl)c1)N1CC(N2CCN(C(=O)c3cscn3)CC2)C1", "note": "[Cpd 1102]", "values": [{"measurement": "Method 1: peak % reversal", "setting": "[2]", "value": 38, "unit": "%"}]}]}
